Results from the NIST ThermoML archive (doi:10.1021/je050170x).

Tests used:
[1] = for surface tension liquid-gas: Wilhelmy-plate method; for mass density / viscosity: 101.33 kPa, Liquid; for viscosity: Capillary tube (Ostwald / Ubbelohde) method
[2] = refractive index (Na D-line) (dimensionless); settings: 101.33 kPa, Liquid, Standard Abbe refractometry

CCOC(=O)CC(C)=O [ethyl 3-oxobutanoate]
Settings | mass density, [1] [kg/m3] | refractive index, [2] | surface tension liquid-gas, [1] [mN/m] | viscosity, [1] [mPa·s]
288.15 K | 1033.92 | 1.42091 | 33.3 | 1.902
298.15 K | 1023.45 | 1.41658 | 32.3 | 1.581
308.15 K | – | 1.41246 | 31.1 | 1.344
318.15 K | – | 1.40803 | 30 | 1.144
328.15 K | 992.26 | 1.40386 | 29.1 | 0.981
338.15 K | 981.58 | 1.39949 | 28.2 | 0.847
348.15 K | 971.05 | 1.3951 | 27 | 0.736
358.15 K | 960.46 | 1.39061 | 26.1 | 0.644

CCOC(=O)c1ccccc1 [ethyl benzoate]
Settings | mass density, [1] [kg/m3] | refractive index, [2] | surface tension liquid-gas, [1] [mN/m] | viscosity, [1] [mPa·s]
288.15 K | 1050.78 | 1.5076 | 35.7 | 2.444
298.15 K | 1041.42 | 1.50328 | 34.6 | 1.971
308.15 K | 1032.07 | 1.49863 | 33.3 | 1.623
318.15 K | 1022.73 | 1.49391 | 32.5 | 1.368
328.15 K | 1013.4 | 1.48946 | 31.5 | 1.169
338.15 K | 1004.06 | 1.4847 | 30.2 | 1.016
348.15 K | 994.7 | 1.48004 | 29.3 | 0.89
358.15 K | 985.31 | 1.47526 | 28.4 | 0.784

CCCCCC(=O)OCC [ethyl hexanoate]
Settings | mass density, [1] [kg/m3] | refractive index, [2] | surface tension liquid-gas, [1] [mN/m] | viscosity, [1] [mPa·s]
288.15 K | 875.64 | 1.4095 | 26.4 | 1.102
298.15 K | 866.29 | 1.40504 | 25.4 | 0.94
308.15 K | 856.91 | 1.40055 | 24.5 | 0.814
318.15 K | 847.5 | 1.39597 | 23.6 | 0.711
328.15 K | 838.05 | 1.39164 | 22.7 | 0.63
338.15 K | 828.55 | 1.38705 | 21.8 | 0.562
348.15 K | 818.99 | 1.38239 | 21 | 0.504
358.15 K | 809.34 | 1.37768 | 20 | 0.452

CCCCCCCC(=O)OCC [ethyl octanoate]
Settings | mass density, [1] [kg/m3] | refractive index, [2] | surface tension liquid-gas, [1] [mN/m] | viscosity, [1] [mPa·s]
288.15 K | 870.79 | 1.41991 | 27.2 | 1.697
298.15 K | 862.15 | 1.4156 | 26.4 | 1.411
308.15 K | 853.52 | 1.41137 | 25.5 | 1.193
318.15 K | 844.87 | 1.40702 | 24.7 | 1.027
328.15 K | 836.21 | 1.40294 | 23.8 | 0.892
338.15 K | 827.53 | 1.39857 | 22.8 | 0.784
348.15 K | 818.58 | 1.39418 | 22 | 0.694
358.15 K | 810.05 | 1.38974 | 21.4 | 0.617

CCOC(=O)Cc1ccccc1 [ethyl phenylacetate]
Settings | mass density, [1] [kg/m3] | refractive index, [2] | surface tension liquid-gas, [1] [mN/m] | viscosity, [1] [mPa·s]
288.15 K | 1036.35 | 1.49971 | 35.9 | 3.002
298.15 K | 1026.96 | 1.49513 | 34.6 | 2.384
308.15 K | 1017.6 | 1.49063 | 33.5 | 1.948
318.15 K | 1008.26 | 1.48583 | 32.8 | 1.624
328.15 K | 998.93 | 1.48149 | 31.6 | 1.383
338.15 K | 989.61 | 1.47688 | 30.6 | 1.191
348.15 K | 980.28 | 1.47224 | 29.4 | 1.037
358.15 K | 970.95 | 1.46747 | 28.6 | 0.908

COC(=O)c1ccccc1 [methyl benzoate]
Settings | mass density, [1] [kg/m3] | refractive index, [2] | surface tension liquid-gas, [1] [mN/m] | viscosity, [1] [mPa·s]
288.15 K | 1093.23 | 1.51915 | 38.6 | 2.297
298.15 K | 1083.92 | 1.51467 | 37.2 | 1.851
308.15 K | 1074.34 | 1.50993 | 35.8 | 1.531
318.15 K | 1064.62 | 1.50514 | 34.8 | 1.297
328.15 K | 1054.82 | 1.50058 | 33.7 | 1.108
338.15 K | 1044.99 | 1.49584 | 32.5 | 0.97
348.15 K | 1035.23 | 1.49107 | 31.3 | 0.852
358.15 K | 1025.6 | 1.48624 | 30.4 | 0.75
